“Also recorded” adds a separate entry of the source.
Assays:
[1] = epithelial lining fluid to total plasma/serum; cited from earlier work
[2] = tested on: intracellular MAC in THP-1 monocytes; assay: Hollow fiber system model of MAC (HFS-MAC): microbial kill; format: cell-based, Mycobacterium avium complex; settings: HF experiments
Procedure: The anti-mycobacterial effects of CLR, CFZ, and RFB was evaluated in the hollow fiber system model of MAC (HFS-MAC), which recapitulates the intrapulmonary concentrations of these antibiotics. The HFS-MAC allows for an assessment of the contribution of individual drug components in terms of anti-mycobacterial effects and enables exploration of potential synergy, additivity, or antagonism of different doses of drugs and combination regimens on the log-phase growth of intracellular MAC, for both microbial kill and resistance suppression.
A two-part investigation was conducted to assess the contribution of components of various FDC products comprising CLR, CFZ, and RFB in terms of depth and rate of MAC kill and suppression of the emergence of resistance. The anti-MAC activity of each antibiotic component was evaluated as one-drug alone; as two-drug combinations and the three-drug combination. For each combination (singlet, doublet or triplet), the drug concentrations were sampled from the HF fluid bathing MAC-infected cells. […] Anti-MAC activity was evaluated by kill slopes defined as the kill rate constant (and the half-life of kill [reciprocal of the kill rate constant]) as well as the maximum kill, defined as the maximum reduction in MAC CFUs and compared between the different antibiotic combinations.
MAC was grown into log-phase for 4 days, parallel with cultivation of THP-1 monocytes. The THP-1 cells were then infected with MAC overnight at a multiplicity of infection of 1:1. The THP-1 cells were washed to remove extracellular bacteria, and 20 mL of 1×10^6 (6.0 log10) cells/mL were inoculated into each HFS-MAC on Study Day 0. The peripheral compartment is the abluminal hollow fibers space that is also enclosed by the plastic, while the intraluminal space and flow path form the central compartment. […]

[3] = 7-day mouse tolerability and PK study; settings: for Cavg (rifabutin) / Cavg (clarithromycin): AUCtlast/24 h; for Tmax / AUC(0-t) / Cmax: female, C57BL/6, mouse, po
Procedure: Sixty (60) female mice were tested, 12 per treatment groups: […]

[4] = tested on: M. avium; assay: MIC of antibiotics by broth microdilution, M. avium strains of Examples 3 and 4; format: cell-based, Mycobacterium avium subsp. hominissuis; settings: for minimum inhibitory concentrations (MICs) used for antibiotic plates: 7H10 agar plates for tissue CFU counts
Procedure: Susceptibility testing was conducted using broth microdilution single and twofold dilutions as described in the literature. Suspensions were prepared by swabs on a growth plate with a sterile cotton swab, or were prepared in broth culture. The growth was transferred to a 4.5 mL of phosphate buffer solution (PBS) until the turbidity matched the density of a 0.5 McFarland standard. Suspensions were then vigorously mixed on a vortex mixer for 15 to 20 seconds. The final inoculum was prepared to a bacterial density of 10^5. The tube was inverted 8-10 times to mix the suspension.
(§1) Following both the four-week and eight-week treatment period, mice were sacrificed, and lungs and spleens were harvested for CFU counts in each tissue and compared to CFUs recovered in the baseline and vehicle-treated groups. Tissue samples were plated with and without antibiotic on 7H10 agar. Antibiotic plates were made with minimum inhibitory concentrations (MICs) of 8 μg/ml for clarithromycin, and 0.25, μg/ml for both rifabutin (RFB) and clofazimine (CFZ). Plates were made for each of clarithromycin (CLR) alone, clarithromycin plus either rifabutin (CLR+RFB) or clofazimine (CLR+CFZ) and the three-drug combination (CLR+RFB+CFZ). All plates were incubated in a microbiological incubator at 37° C. for 14 days.

[5] = tested on: M. avium 104 biofilm; assay: In vitro biofilm model of infection; format: cell-based, Mycobacterium avium subsp. hominissuis; settings: mean ± SD; CLR 1.9-4.3 μg/mL, RFB 0.04 μg/mL, CFZ 0.0005 μg/mL
[6] = tested on: MAC bacteria; format: cell-based, Mycobacterium avium complex; settings: 2×MIC; starting inoculum 5.5 log10 CFU/ml
Procedure: In vitro, efficacy was studied in static time-kill kinetics assays (at 2×minimum inhibitory concentration [MIC]), intended to mirror a desired peak serum concentration for all three antibiotics using an established assay. All experiments were performed with a starting inoculum of 5.5 log10 CFU/ml MAC bacteria, higher than the bacterial load expected in the airway secretions of patients with mild nodular-bronchiectatic disease due to MAC.

[7] = tested on: MAC; assay: Lung histopathology of mice infected with MAC and treated for four and eight weeks; format: in vivo, Mycobacterium avium complex; settings: 32 sections per group
From the text: Lung and Spleen Histopathology of Mice Infected with MAC and Treated with FDC Components Alone and in Combination for Four and Eight Weeks of Treatment
Each of the experimental group had eight cut examined from each lung (8×2 lungs=16×2 mice=32 sections). Lungs were normal and not showing any pathology at pre-infection.

[8] = tested on: MAC; assay: MIC of the MAC strains used in the HFS-MAC studies; format: cell-based, Mycobacterium avium complex; settings: Mycobacterium avium
Procedure: The MAC strain used in the HFS-MAC studies was ATCC strain 700898. The study center also had 5 well-characterized clinical strains that have undergone whole-genome sequencing and habituation to the HFS-MAC. Stock cultures of MAC were stored at −80° C. in Middlebrook 7H9 broth with 10% OADC and 10% glycerol. THP-1 monocytes were stored in liquid nitrogen and have been habituated for the HFS-MAC growth conditions.

[9] = tested on: NTM; settings: mouse models of systemic and lung infection; preclinical literature; cited from earlier work
[10] = tested on: M. avium strain 104; assay: Mouse lung infection model, clarithromycin sensitive strain; format: in vivo, Mycobacterium avium subsp. hominissuis; settings: for reduction in CFU relative to vehicle: 50 mg/kg
Procedure: as §1

[11] = ATCC700898, MAC (ATCC 700898), laboratory strain

Structure (SMILES): CO[C@H]1/C=C/O[C@@]2(C)Oc3c(C)c(O)c4c(O)c(c(/C=N/N5CCN(C)CC5)c(O)c4c3C2=O)NC(=O)/C(C)=C\C=C\[C@H](C)[C@H](O)[C@@H](C)[C@@H](O)[C@@H](C)[C@H](OC(C)=O)[C@@H]1C [rifampin]
- ELF:plasma ratio [1]: approximately 0.34

Structure (SMILES): CO[C@H]1/C=C/O[C@@]2(C)Oc3c(C)c(O)c4c(c3C2=O)C2=NC3(CCN(CC(C)C)CC3)NC2=C(NC(=O)/C(C)=C\C=C\[C@H](C)[C@H](O)[C@@H](C)[C@@H](O)[C@@H](C)[C@H](OC(C)=O)[C@@H]1C)C4=O [Rifabutin, rifabutin]
- effect on CFUs / MAC killing, summary [2]: CFU counts increased
- Cavg (rifabutin) ([3]; Day 7, RFB 20 mg/kg alone): 1,117 ng/mL
- Cavg (rifabutin) ([3]; Day 7, RFB 60 mg/kg alone): 2,558 ng/mL
- Cavg (rifabutin) ([3]; Day 7, RFB 60 mg/kg with CLR 200 mg/kg and CFZ 30 mg/kg): 4,541 ng/mL
- Tmax ([3]; in vivo, 20 mg/kg): 1 h
- AUC(0-t) ([3]; in vivo, 20 mg/kg, AUCtlast (rifabutin), Day 1, RFB 20 mg/kg alone, oral, mouse plasma): 22.1 µg·h/mL
- AUC(0-t) ([3]; in vivo, 20 mg/kg, AUCtlast (rifabutin), Day 7, RFB 20 mg/kg alone, oral once daily, mouse plasma): 26.8 µg·h/mL
- Cmax ([3]; in vivo, 20 mg/kg, Cmax (rifabutin), Day 1, RFB 20 mg/kg alone, oral, mouse plasma): 2.31 µg/mL
- Cmax ([3]; in vivo, 20 mg/kg, Cmax (rifabutin), Day 7, RFB 20 mg/kg alone, oral once daily, mouse plasma): 3.14 µg/mL
- Tmax ([3]; in vivo, 60 mg/kg): 1 h
- AUC(0-t) ([3]; in vivo, 60 mg/kg, AUCtlast (rifabutin), Day 1, RFB 60 mg/kg alone, oral, mouse plasma): 60.2 µg·h/mL
- AUC(0-t) ([3]; in vivo, 60 mg/kg, AUCtlast (rifabutin), Day 1, RFB 60 mg/kg with CLR 200 mg/kg and CFZ 30 mg/kg, oral, mouse plasma): 60.4 µg·h/mL
- AUC(0-t) ([3]; in vivo, 60 mg/kg, AUCtlast (rifabutin), Day 7, RFB 60 mg/kg alone, oral once daily, mouse plasma): 61.4 µg·h/mL
- AUC(0-t) ([3]; in vivo, 60 mg/kg, AUCtlast (rifabutin), Day 7, RFB 60 mg/kg with CLR 200 mg/kg and CFZ 30 mg/kg, oral once daily, mouse plasma): 109 µg·h/mL
- Cmax ([3]; in vivo, 60 mg/kg, Cmax (rifabutin), Day 1, RFB 60 mg/kg alone, oral, mouse plasma): 5.65 µg/mL
- Cmax ([3]; in vivo, 60 mg/kg, Cmax (rifabutin), Day 1, RFB 60 mg/kg with CLR 200 mg/kg and CFZ 30 mg/kg, oral, mouse plasma): 5.3 µg/mL
- Cmax ([3]; in vivo, 60 mg/kg, Cmax (rifabutin), Day 7, RFB 60 mg/kg alone, oral once daily, mouse plasma): 5.76 µg/mL
- Cmax ([3]; in vivo, 60 mg/kg, Cmax (rifabutin), Day 7, RFB 60 mg/kg with CLR 200 mg/kg and CFZ 30 mg/kg, oral once daily, mouse plasma): 5.72 µg/mL
- minimum inhibitory concentrations (MICs) used for antibiotic plates [4]: 0.25 mg/L
- Colony Forming Unit Concentration, Four Days [5]: 1.41 ± 0.5 × 10^7 CFU/mL
- Colony Forming Unit Concentration, Seven Days [5]: 1.64 ± 0.3 × 10^7 CFU/mL
- activity as single drugs [6]: bacteriostatic activity
- Lung Histopathology Findings [7]: Diffuse congestion; also recorded: Infiltrates of lymphocytes are also observed in multiple locations
- MIC [8, 11]: 0.0625 mg/L
- MIC ([8]; Clinical strain #1): 0.125 mg/L
- MIC ([8]; Clinical strain #2): 0.125 mg/L
- MIC ([8]; Clinical strain #3): 0.125 mg/L
- MIC ([8]; Clinical strain #4): 2 mg/L
- MIC ([8]; Clinical strain #5): 0.125 mg/L
- Effective Dose [9]: 10 mg/kg/day

Structure (SMILES): CC[C@H]1OC(=O)[C@H](C)[C@@H](O[C@H]2C[C@@](C)(OC)[C@@H](O)[C@H](C)O2)[C@H](C)[C@@H](O[C@@H]2O[C@H](C)C[C@H](N(C)C)[C@H]2O)[C@](C)(OC)C[C@@H](C)C(=O)[C@H](C)[C@@H](O)[C@]1(C)O [Clarithromycin, clarithromycin]
- effect on CFUs / MAC killing, summary [2]: reductions in colony forming units
- Cavg (clarithromycin) ([3]; Day 7, CLR 100 mg/kg alone): 729 ng/mL
- Cavg (clarithromycin) ([3]; Day 7, CLR 200 mg/kg alone): 1,425 ng/mL
- Cavg (clarithromycin) ([3]; Day 7, CLR 200 mg/kg with RFB 60 mg/kg and CFZ 30 mg/kg): 2,704 ng/mL
- AUC(0-t) ([3]; plasma, 100 mg/kg, AUCtlast (clarithromycin), Day 1, CLR 100 mg/kg alone, oral, mouse plasma): 11.1 µg·h/mL
- AUC(0-t) ([3]; plasma, 100 mg/kg, AUCtlast (clarithromycin), Day 7, CLR 100 mg/kg alone, oral once daily, mouse plasma): 17.5 µg·h/mL
- Cmax ([3]; plasma, 100 mg/kg, Cmax (clarithromycin), Day 1, CLR 100 mg/kg alone, oral, mouse plasma): 3.4 µg/mL
- Cmax ([3]; plasma, 100 mg/kg, Cmax (clarithromycin), Day 7, CLR 100 mg/kg alone, oral once daily, mouse plasma): 6.13 µg/mL
- Tmax ([3]; plasma, 100 mg/kg, tmax (clarithromycin), Day 1, CLR 100 mg/kg alone, oral, mouse plasma): 1 h
- Tmax ([3]; plasma, 100 mg/kg, tmax (clarithromycin), Day 7, CLR 100 mg/kg alone, oral once daily, mouse plasma): 1 h
- AUC(0-t) ([3]; plasma, 200 mg/kg, AUCtlast (clarithromycin), Day 1, CLR 200 mg/kg alone, oral, mouse plasma): 36.2 µg·h/mL
- AUC(0-t) ([3]; plasma, 200 mg/kg, AUCtlast (clarithromycin), Day 1, CLR 200 mg/kg with RFB 60 mg/kg and CFZ 30 mg/kg, oral, mouse plasma): 44.2 µg·h/mL
- AUC(0-t) ([3]; plasma, 200 mg/kg, AUCtlast (clarithromycin), Day 7, CLR 200 mg/kg alone, oral once daily, mouse plasma): 34.2 µg·h/mL
- AUC(0-t) ([3]; plasma, 200 mg/kg, AUCtlast (clarithromycin), Day 7, CLR 200 mg/kg with RFB 60 mg/kg and CFZ 30 mg/kg, oral once daily, mouse plasma): 64.9 µg·h/mL
- Cmax ([3]; plasma, 200 mg/kg, Cmax (clarithromycin), Day 1, CLR 200 mg/kg alone, oral, mouse plasma): 9.11 µg/mL
- Cmax ([3]; plasma, 200 mg/kg, Cmax (clarithromycin), Day 1, CLR 200 mg/kg with RFB 60 mg/kg and CFZ 30 mg/kg, oral, mouse plasma): 8.37 µg/mL
- Cmax ([3]; plasma, 200 mg/kg, Cmax (clarithromycin), Day 7, CLR 200 mg/kg alone, oral once daily, mouse plasma): 7.43 µg/mL
- Cmax ([3]; plasma, 200 mg/kg, Cmax (clarithromycin), Day 7, CLR 200 mg/kg with RFB 60 mg/kg and CFZ 30 mg/kg, oral once daily, mouse plasma): 10.1 µg/mL
- Tmax ([3]; plasma, 200 mg/kg, tmax (clarithromycin), Day 1, CLR 200 mg/kg alone, oral, mouse plasma): 1 h
- Tmax ([3]; plasma, 200 mg/kg, tmax (clarithromycin), Day 1, CLR 200 mg/kg with RFB 60 mg/kg and CFZ 30 mg/kg, oral, mouse plasma): 1 h
- Tmax ([3]; plasma, 200 mg/kg, tmax (clarithromycin), Day 7, CLR 200 mg/kg alone, oral once daily, mouse plasma): 1 h
- Tmax ([3]; plasma, 200 mg/kg, tmax (clarithromycin), Day 7, CLR 200 mg/kg with RFB 60 mg/kg and CFZ 30 mg/kg, oral once daily, mouse plasma): 1 h
- ELF:plasma ratio [1]: 3.4-7.8
- minimum inhibitory concentrations (MICs) used for antibiotic plates [4]: 8 mg/L
- MIC ([4]; Mycobacterium avium, clarithromycin resistant sub-subpopulation, 23 S RNA gene mutation): > 128 mg/L
- Colony Forming Unit Concentration, Four Days [5]: 1.35 ± 0.3 × 10^7 CFU/mL
- Colony Forming Unit Concentration, Seven Days [5]: 1.07 ± 0.3 × 10^7 CFU/mL
- reduction in CFU relative to vehicle ([10]; after eight weeks of treatment): ~2 log unit
- reduction in CFU relative to vehicle ([10]; after four weeks of treatment): approximately 1 log unit
- CFUs resistant to clarithromycin in one animal ([10]; clarithromycin monotherapy treatment): 200 CFUs
- activity as single drugs [6]: bacteriostatic activity
- Lung Histopathology Findings [7]: Diffuse congestion; bacteria in granulomas
- MIC [8, 11]: 0.25 mg/L
- MIC ([8]; Clinical strain #1): 0.125 mg/L
- MIC ([8]; Clinical strain #2): 0.5 mg/L
- MIC ([8]; Clinical strain #3): 32 mg/L
- MIC ([8]; Clinical strain #4): 0.25 mg/L
- MIC ([8]; Clinical strain #5): 0.125 mg/L
- Effective Dose [9]: 50 to 100 mg/kg/day

Source: patent US11590154B2, “Triple antibiotic fixed-dose combination products, dosing regimen, methods, and kits for treating pulmonary non-tuberculosis mycobacterial infections” (priority 2020, dated 2023)
